Source: patent US20250340591A1, “COMPOSITION FOR PREVENTING OR TREATING INFLAMMATORY BOWEL DISEASE CONTAINING NOVEL COMPOUND” (ANYGEN CO., LTD., priority 2021, published 2025)
Where two headings read alike, the source gives them in different places. Square brackets hold non-standard residues; d marks the D form. Peptide text beside a SMILES is read from it. * marks the point of attachment. Tyr(3,5-(NO2)2) = N[C@@H](Cc1cc([N+](=O)[O-])c(O)c([N+](=O)[O-])c1)C(=O)O; His(Trt) = N[C@@H](Cc1cn(C(c2ccccc2)(c2ccccc2)c2ccccc2)cn1)C(=O)O; His(τ-CHPh2) = N[C@@H](Cc1cn(C(c2ccccc2)c2ccccc2)cn1)C(=O)O; Biotin = O=C1N[C@H]2[C@H](CS[C@H]2CCCCC(=O)*)N1; His(τ-Bzl) = N[C@@H](Cc1cn(Cc2ccccc2)cn1)C(=O)O; dPhe(4-Me) = Cc1ccc(C[C@@H](N)C(=O)O)cc1; d2Nal = N[C@H](Cc1ccc2ccccc2c1)C(=O)O; Dmt = Cc1cc(O)cc(C)c1C[C@H](N)C(=O)O; Lauroyl = CCCCCCCCCCCC(=O)*; Octanoyl = CCCCCCCC(=O)*

Molecular target: T1, GPR39 (Homo sapiens, UniProt O43194)
T1 sequence (O43194 1-453): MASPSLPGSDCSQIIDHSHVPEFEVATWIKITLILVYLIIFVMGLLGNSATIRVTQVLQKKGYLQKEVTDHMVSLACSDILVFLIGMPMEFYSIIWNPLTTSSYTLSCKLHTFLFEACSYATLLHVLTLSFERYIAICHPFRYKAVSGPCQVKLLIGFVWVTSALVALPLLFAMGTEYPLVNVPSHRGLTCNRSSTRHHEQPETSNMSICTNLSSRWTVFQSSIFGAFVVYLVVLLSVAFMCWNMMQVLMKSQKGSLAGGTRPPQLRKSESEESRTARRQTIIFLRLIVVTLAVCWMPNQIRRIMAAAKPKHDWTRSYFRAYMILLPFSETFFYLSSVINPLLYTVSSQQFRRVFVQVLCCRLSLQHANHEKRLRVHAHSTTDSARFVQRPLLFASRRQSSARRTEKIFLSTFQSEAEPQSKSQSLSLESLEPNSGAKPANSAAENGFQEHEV
Assay: luciferase assay system (SRE luciferase reporter gene, CV-1 cells expressing GPR39)
Type: cell-based
Design: expressed in transfected cells; host or cells: CV-1 fibroblast cell line (Korea Cell Line Bank), adenoviral transduction at 50 MOI

[1] = CV-1 cells, GPR39 and SRE luciferase adenovirus, 6 hours treatment

ECmax (−fold induction over basal) [fold induction over basal] | Compound | ECmax (−fold induction over basal) [1] [fold induction over basal] | activity level for GPR39 (in words) (comment on Table 3)
17.3±1.22 | CCCCCCCC(=O)NCCCC[C@H](NC(=O)[C@@H](N)CC1=CN(CCC2CCCCC2)CN1CCC1CCCCC1)C(=O)N[C@@H](Cc1ccccc1)C(=O)N[C@@H](Cc1ccc(O)cc1)C(=O)O [HKFY-8, N2-((S)-2-amino-3-(1,3-bis(2-cyclohexylethyl)-2,3-dihydro-1H-imidazol-4-yl)propanoyl)-N6-octanoyl-L-lysyl-L-phenylalanyl-L-tyrosine] | – | –
7.72 ± 0.57 | CCCCCCCCCCCC(=O)NCCCC[C@H](NC(=O)[C@@H](N)Cc1cn(C(c2ccccc2)(c2ccccc2)c2ccccc2)cn1)C(=O)N[C@@H](Cc1ccccc1)C(=O)N[C@@H](Cc1ccc(O)cc1)C(=O)O [HKFY-25, N6-dodecanoyl-N2-(Nt-trityl-L-histidyl)-L-lysyl-L-phenylalanyl-L-tyrosine] (H-[His(Trt)]K(Lauroyl)FY-OH) | – | –
22 ± 2.2 | CCCCCCCC(=O)NCCCC[C@H](NC(=O)[C@@H](N)Cc1cn(CCC2CCCCC2)cn1)C(=O)N[C@@H](Cc1ccccc1)C(=O)N[C@@H](Cc1ccc(O)cc1)C(=O)O [HKFY-11, N2-(Nt-(2-cyclohexylethyl)-L-histidyl)-N6-octanoyl-L-lysyl-L-phenylalanyl-L-tyrosine] | – | –
– | CCCCCCCC(=O)NCCCC[C@H](NC(=O)[C@@H](N)Cc1cn(C(c2ccccc2)c2ccccc2)cn1)C(=O)N[C@H](Cc1ccc(C)cc1)C(=O)N[C@@H](Cc1cc([N+](=O)[O-])c(O)c([N+](=O)[O-])c1)C(=O)O [HKFY-69, (S)-2-((R)-2-((S)-2-((S)-2-amino-3-(1-benzhydryl-1H-imidazol-4-yl)propanamido)-6-octanamidohexanamido)-3-(p-tolyl)propanamido)-3-(4-hydroxy-3,5-dinitrophenyl)propanoic acid] (H-[His(τ-CHPh2)]K(Octanoyl)[dPhe(4-Me)][Tyr(3,5-(NO2)2)]-OH) | 12.2 ± 2.5 | –
25.7 ± 2.4 | C=C(CCCCCCC)NCCCC[C@H](NC(=O)[C@@H](N)Cc1cn(C(c2ccccc2)(c2ccccc2)c2ccccc2)cn1)C(=O)N[C@H](Cc1ccc(Cl)cc1)C(=O)N[C@@H](Cc1ccc(O)cc1)C(=O)O [HKFY-13, ((R)-2-((S)-2-((S)-2-amino-3-(1-trityl-1H-imidazol-4-yl)propanamido)-6-(non-1-en-2-ylamino)hexanamido)-3-(4-chlorophenyl)propanoyl)-L-tyrosine] | – | –
15.9 ± 4.12 | CCCCCCCC(=O)NCCCC[C@H](NC(=O)[C@@H](N)Cc1cn(S(=O)(=O)c2ccc(C)cc2)cn1)C(=O)N[C@H](Cc1ccc(C)cc1)C(=O)N[C@@H](Cc1ccc(O)cc1)C(=O)O [HKFY-75, ((R)-2-((S)-2-((S)-2-amino-3-(1-tosyl-1H-imidazol-4-yl)propanamido)-6-octanamidohexanamido)-3-(p-tolyl)propanoyl)-L-tyrosine] | – | –
– | CCCCCCCC(=O)NCCCC[C@H](NC(=O)[C@@H](N)Cc1cn(C(c2ccccc2)c2ccccc2)cn1)C(=O)N[C@H](Cc1ccc(C)cc1)C(=O)N[C@@H](Cc1c(C)cc(O)cc1C)C(=O)O [HKFY-36, (S)-2-((R)-2-((S)-2-((S)-2-amino-3-(1-benzhydryl-1H-imidazol-4-yl)propanamido)-6-octanamidohexanamido)-3-(p-tolyl)propanamido)-3-(4-hydroxy-2,6-dimethylphenyl)propanoic acid] (H-[His(τ-CHPh2)]K(Octanoyl)[dPhe(4-Me)][Dmt]-OH) | 9.9 ± 0.28 | –
18.8 ± 3.2 | CCCCCCCC(=O)NCCCC[C@H](NC(=O)[C@@H](N)Cc1cn(C(c2ccccc2)(c2ccccc2)c2ccccc2)cn1)C(=O)N[C@H](Cc1ccc2ccccc2c1)C(=O)N[C@@H](Cc1ccc(O)cc1)C(=O)O [HKFY-74, ((R)-2-((S)-2-((S)-2-amino-3-(1-trityl-1H-imidazol-4-yl)propanamido)-6-octanamidohexanamido)-3-(naphthalen-2-yl)propanoyl)-L-tyrosine] (H-[His(Trt)]K(Octanoyl)[d2Nal]Y-OH) | – | –
20.2 ± 3.5 | CCCCCCCC(=O)NCCCC[C@H](NC(=O)[C@@H](N)Cc1cn(C(c2ccccc2)c2ccccc2)cn1)C(=O)N[C@H](Cc1ccc(C)cc1)C(=O)N[C@@H](Cc1ccc(O)cc1)C(N)=O [HKFY-66, N-((S)-5-((S)-2-amino-3-(1-benzhydryl-1H-imidazol-4-yl)propanamido)-6-(((R)-1-(((S)-1-amino-3-(4-hydroxyphenyl)-1-oxopropan-2-yl)amino)-1-oxo-3-(p-tolyl)propan-2-yl)amino)-6-oxohexyl)octanamide] (H-[His(τ-CHPh2)]K(Octanoyl)[dPhe(4-Me)]Y-NH2) | – | –
15 ± 1.87 | CCCCCCCC(=O)NCCCC[C@H](NC(=O)[C@H](Cc1cn(C(c2ccccc2)(c2ccccc2)c2ccccc2)cn1)NC(=O)CCCC[C@@H]1SC[C@@H]2NC(=O)N[C@@H]21)C(=O)N[C@@H](Cc1ccccc1)C(=O)N[C@@H](Cc1ccc(O)cc1)C(=O)O [HKFY-2, N6-octanoyl-N2-(Na-(5-((3aS,4S,6aR)-2-oxohexahydro-1H-thieno[3,4-d]imidazol-4-yl)pentanoyl)-Nt-trityl-L-histidyl)-L-lysyl-L-phenylalanyl-L-tyrosine] (Biotin-[His(Trt)]K(Octanoyl)FY-OH) | – | –
16.2 ± 1.5 | CCCCCCCC(=O)NCCCC[C@H](NC(=O)[C@@H](N)Cc1cn(C(c2ccccc2)(c2ccccc2)c2ccccc2)cn1)C(=O)N[C@@H](Cc1ccccc1)C(=O)N[C@@H](CO)C(=O)O [HKFY-50, N6-octanoyl-N2-(Nt-trityl-L-histidyl)-L-lysyl-L-phenylalanyl-L-serine] (H-[His(Trt)]K(Octanoyl)FS-OH) | – | –
14.4 ± 2.7 | CCCCCCCC(=O)NCCCC[C@H](NC(=O)[C@@H](N)Cc1cn(C(c2ccccc2)(c2ccccc2)c2ccccc2)cn1)C(=O)N[C@@H](Cc1ccc(O)cc1)C(=O)N[C@@H](Cc1ccc(O)cc1)C(=O)O [HKFY-48, N6-octanoyl-N2-(Nt-trityl-L-histidyl)-L-lysyl-L-tyrosyl-L-tyrosine] (H-[His(Trt)]K(Octanoyl)YY-OH) | – | –
13 ± 1.7 | CCCCCCCC(=O)NCCCC[C@H](NC(=O)[C@@H](N)Cc1cn(C(c2ccccc2)(c2ccccc2)c2ccccc2)cn1)C(=O)N[C@@H](Cc1ccc(O)cc1)C(=O)N[C@@H](Cc1ccccc1)C(=O)O [HKFY-47, N6-octanoyl-N2-(Nt-trityl-L-histidyl)-L-lysyl-L-tyrosyl-L-phenylalanine] (H-[His(Trt)]K(Octanoyl)YF-OH) | – | –
20.51 ± 0.57 | CCCCCCCC(=O)NCCCC[C@H](NC(=O)[C@@H](N)Cc1cn(C(c2ccccc2)(c2ccccc2)c2ccccc2)cn1)C(=O)N[C@@H](Cc1ccccc1)C(=O)N[C@@H](Cc1ccc(O)cc1)C(=O)O [HKFY-1, N6-octanoyl-N2-(Nt-trityl-L-histidyl)-L-lysyl-L-phenylalanyl-L-tyrosine] (H-[His(Trt)]K(Octanoyl)FY-OH) | – | –
13.5 ± 1.8 | CCCCCCCC(=O)NCCCC[C@H](NC(=O)[C@@H](N)Cc1c[nH]c(-c2cccs2)n1)C(=O)N[C@H](Cc1ccc(C)cc1)C(=O)N[C@@H](Cc1ccc(O)cc1)C(=O)O [HKFY-63, ((R)-2-((S)-2-((S)-2-amino-3-(2-(thiophen-2-yl)-1H-imidazol-4-yl)propanamido)-6-octanamidohexanamido)-3-(p-tolyl)propanoyl)-L-tyrosine] | – | higher activity level than other HKFY derivatives
9.2 ± 2.58 | CCCCCCCC(=O)NCCCC[C@H](NC(=O)[C@@H](N)Cc1cn(Cc2ccccc2)cn1)C(=O)N[C@@H](Cc1ccccc1)C(=O)N[C@@H](Cc1ccc(O)cc1)C(=O)O [HKFY-3, N2-(Nt-benzyl-L-histidyl)-N6-octanoyl-L-lysyl-L-phenylalanyl-L-tyrosine] (H-[His(τ-Bzl)]K(Octanoyl)FY-OH) | – | –
28.1 ± 2.1 | CCCCCCCC(=O)NCCCC[C@H](NC(=O)[C@H](N)Cc1cn(C(c2ccccc2)c2ccccc2)cn1)C(=O)N[C@H](Cc1ccc(C)cc1)C(=O)N[C@@H](Cc1ccc(O)cc1)C(=O)O [HKFY-62, ((R)-2-((S)-2-((R)-2-amino-3-(1-benzhydryl-1H-imidazol-4-yl)propanamido)-6-octanamidohexanamido)-3-(p-tolyl)propanoyl)-L-tyrosine] | – | –
18.3 ± 2.5 | CCCCCCCC(=O)NCCCC[C@H](NC(=O)[C@@H](N)Cc1cn([C@H](c2ccccc2)c2ccc(Cl)cc2)cn1)C(=O)N[C@@H](Cc1ccccc1)C(=O)N[C@@H](Cc1ccc(O)cc1)C(=O)O [HKFY-21, N2-(Nt-((R)-(4-chlorophenyl)(phenyl)methyl)-L-histidyl)-N6-octanoyl-L-lysyl-L-phenylalanyl-L-tyrosine] | – | –
